Data taken from ChEMBL document CHEMBL4257449, “New N-(2-phenyl-4-oxo-1,3-thiazolidin-3-yl)-1,2-benzothiazole-3-carboxamides and acetamides as antimicrobial agents” (2017).
In brackets after ≈: the same amount, converted by molar mass.

How the values were obtained:
Pseudomonas aeruginosa [1] = test: Bactericidal activity against Pseudomonas aeruginosa ATCC 27853 incubated for 24 hrs followed by serial sub-cultivation and measured after 24 hrs by microdilution method; type: functional
Trichoderma viride [2] = test: Fungicidal activity against Trichoderma viride IAM 5061 incubated for 72 hrs followed by serial sub-cultivation for 72 hrs and measured after 72 hrs by serial dilution method; type: functional
Enterobacter cloacae [3] = test: Bactericidal activity against Enterobacter cloacae incubated for 24 hrs followed by serial sub-cultivation and measured after 24 hrs by microdilution method; type: functional
Trichoderma viride [4] = test: Antifungal activity against Trichoderma viride IAM 5061 after 72 hrs by serial dilution method; type: functional; settings: IAM 5061, 72 h
Bacillus cereus [5] = test: Antibacterial activity against Bacillus cereus after 24 hrs by microdilution method; type: functional
Micrococcus flavus [6] = test: Antibacterial activity against Micrococcus flavus ATCC 10240 after 24 hrs by microdilution method; type: functional; settings: ATCC 10240, 24 h
Staphylococcus aureus [7] = test: Antibacterial activity against Staphylococcus aureus ATCC 6538 after 24 hrs by microdilution method; type: functional; settings: ATCC 6538, 24 h
Bacillus cereus [8] = test: Bactericidal activity against Bacillus cereus incubated for 24 hrs followed by serial sub-cultivation and measured after 24 hrs by microdilution method; type: functional
Talaromyces funiculosus [9] = test: Fungicidal activity against Penicillium funiculosum ATCC 36839 incubated for 72 hrs followed by serial sub-cultivation for 72 hrs and measured after 72 hrs by serial dilution method; type: functional
Candida albicans [10] = test: Antifungal activity against Candida albicans after 72 hrs by serial dilution method; type: functional
Listeria monocytogenes [11] = test: Bactericidal activity against Listeria monocytogenes NCTC 7973 incubated for 24 hrs followed by serial sub-cultivation and measured after 24 hrs by microdilution method; type: functional
Staphylococcus aureus [12] = test: Bactericidal activity against Staphylococcus aureus ATCC 6538 incubated for 24 hrs followed by serial sub-cultivation and measured after 24 hrs by microdilution method; type: functional
Aspergillus ochraceus [13] = test: Antifungal activity against Aspergillus ochraceus ATCC 12066 after 72 hrs by serial dilution method; type: functional; settings: ATCC 12066, 72 h
Talaromyces funiculosus [14] = test: Antifungal activity against Penicillium funiculosum ATCC 36839 after 72 hrs by serial dilution method; type: functional; settings: ATCC 36839, 72 h
Listeria monocytogenes [15] = test: Antibacterial activity against Listeria monocytogenes NCTC 7973 after 24 hrs by microdilution method; type: functional; settings: NCTC 7973, 24 h
Salmonella typhimurium [16] = test: Antibacterial activity against Salmonella typhimurium ATCC 13311 after 24 hrs by microdilution method; type: functional, Salmonella enterica subsp. enterica serovar Typhimurium; settings: Salmonella enterica, ATCC 13311, 24 h
Escherichia coli [17] = test: Antibacterial activity against Escherichia coli ATCC 35210 after 24 hrs by microdilution method; type: functional; settings: ATCC 35210, 24 h
Aspergillus fumigatus [18] = test: Fungicidal activity against Aspergillus fumigatus incubated for 72 hrs followed by serial sub-cultivation for 72 hrs and measured after 72 hrs by serial dilution method; type: functional
Pseudomonas aeruginosa [19] = test: Antibacterial activity against Pseudomonas aeruginosa ATCC 27853 after 24 hrs by microdilution method; type: functional; settings: ATCC 27853, 24 h
Micrococcus flavus [20] = test: Bactericidal activity against Micrococcus flavus ATCC 10240 incubated for 24 hrs followed by serial sub-cultivation and measured after 24 hrs by microdilution method; type: functional
Penicillium ochrochloron [21] = test: Fungicidal activity against Penicillium ochrochloron ATCC 9112 incubated for 72 hrs followed by serial sub-cultivation for 72 hrs and measured after 72 hrs by serial dilution method; type: functional
Aspergillus versicolor [22] = test: Fungicidal activity against Aspergillus versicolor ATCC 11730 incubated for 72 hrs followed by serial sub-cultivation for 72 hrs and measured after 72 hrs by serial dilution method; type: functional
Candida albicans [23] = test: Fungicidal activity against Candida albicans incubated for 72 hrs followed by serial sub-cultivation for 72 hrs and measured after 72 hrs by serial dilution method; type: functional
Salmonella typhimurium [24] = test: Bactericidal activity against Salmonella typhimurium ATCC 13311 incubated for 24 hrs followed by serial sub-cultivation and measured after 24 hrs by microdilution method; type: functional, Salmonella enterica subsp. enterica serovar Typhimurium
Aspergillus niger [25] = test: Fungicidal activity against Aspergillus niger ATCC 6275 incubated for 72 hrs followed by serial sub-cultivation for 72 hrs and measured after 72 hrs by serial dilution method; type: functional
Escherichia coli [26] = test: Bactericidal activity against Escherichia coli ATCC 35210 incubated for 24 hrs followed by serial sub-cultivation and measured after 24 hrs by microdilution method; type: functional
Enterobacter cloacae [27] = test: Antibacterial activity against Enterobacter cloacae after 24 hrs by microdilution method; type: functional
Penicillium ochrochloron [28] = test: Antifungal activity against Penicillium ochrochloron ATCC 9112 after 72 hrs by serial dilution method; type: functional; settings: ATCC 9112, 72 h
Aspergillus versicolor [29] = test: Antifungal activity against Aspergillus versicolor ATCC 11730 after 72 hrs by serial dilution method; type: functional; settings: ATCC 11730, 72 h
Aspergillus fumigatus [30] = test: Antifungal activity against Aspergillus fumigatus after 72 hrs by serial dilution method; type: functional
Aspergillus ochraceus [31] = test: Fungicidal activity against Aspergillus ochraceus ATCC 12066 incubated for 72 hrs followed by serial sub-cultivation for 72 hrs and measured after 72 hrs by serial dilution method; type: functional
Aspergillus niger [32] = test: Antifungal activity against Aspergillus niger ATCC 6275 after 72 hrs by serial dilution method; type: functional; settings: ATCC 6275, 72 h

Structure (SMILES)	MBC99.5 (Pseudomonas aeruginosa [1]) [×10⁻² umol/ml]	MFC99.5 (Trichoderma viride [2]) [×10⁻² umol/ml]	MBC99.5 (Enterobacter cloacae [3]) [×10⁻² umol/ml]	MIC (Trichoderma viride [4]) [µM]	MIC (Bacillus cereus [5]) [µM]	MIC (Micrococcus flavus [6]) [µM]	MIC (Staphylococcus aureus [7]) [µM]	MBC99.5 (Bacillus cereus [8]) [×10⁻² umol/ml]	MFC99.5 (Talaromyces funiculosus [9]) [×10⁻² umol/ml]	MIC (Candida albicans [10]) [µM]	MBC99.5 (Listeria monocytogenes [11]) [×10⁻² umol/ml]	MBC99.5 (Staphylococcus aureus [12]) [×10⁻² umol/ml]	MIC (Aspergillus ochraceus [13]) [µM]	MIC (Talaromyces funiculosus [14]) [µM]	MIC (Listeria monocytogenes [15]) [µM]	MIC (Salmonella typhimurium [16]) [µM]	MIC (Escherichia coli [17]) [µM]	MFC99.5 (Aspergillus fumigatus [18]) [×10⁻² umol/ml]	MIC (Pseudomonas aeruginosa [19]) [µM]	MBC99.5 (Micrococcus flavus [20]) [×10⁻² umol/ml]	other results
O=C(NN1C(=O)CSC1c1ccccc1Cl)c1nsc2ccccc12 (stereo unspecified)	38.4	20.5	38.4	102 (≈ 39.8 µg/mL)	154 (≈ 60 µg/mL)	384 (≈ 150 µg/mL)	102 (≈ 39.8 µg/mL)	38.4	38.4	384 (≈ 150 µg/mL)	76.8	38.4	102 (≈ 39.8 µg/mL)	205 (≈ 79.9 µg/mL)	589 (≈ 230 µg/mL)	205 (≈ 79.9 µg/mL)	282 (≈ 110 µg/mL)	20.5	282 (≈ 110 µg/mL)	76.8	MFC99.5 (Penicillium ochrochloron [21]): 76.8 ×10⁻² umol/ml; MFC99.5 (Aspergillus versicolor [22]): 5.1 ×10⁻² umol/ml; MFC99.5 (Candida albicans [23]): 76.8 ×10⁻² umol/ml; MBC99.5 (Salmonella typhimurium [24]): 38.4 ×10⁻² umol/ml; MFC99.5 (Aspergillus niger [25]): 20.5 ×10⁻² umol/ml; MBC99.5 (Escherichia coli [26]): 38.4 ×10⁻² umol/ml; MIC (Enterobacter cloacae [27]): 205 µM (≈ 79.9 µg/mL); MIC (Penicillium ochrochloron [28]): 384 µM (≈ 150 µg/mL); MIC (Aspergillus versicolor [29]): 25.6 µM (≈ 9.98 µg/mL); MIC (Aspergillus fumigatus [30]): 102 µM (≈ 40 µg/mL); MFC99.5 (Aspergillus ochraceus [31]): 20.5 ×10⁻² umol/ml; MIC (Aspergillus niger [32]): 102 µM (≈ 39.8 µg/mL)
O=C(NN1C(=O)CSC1c1cccc(Cl)c1)c1nsc2ccccc12 (stereo unspecified)	38.4	10.2	38.4	51 (≈ 19.9 µg/mL)	102 (≈ 39.8 µg/mL)	205 (≈ 79.9 µg/mL)	102 (≈ 39.8 µg/mL)	38.4	20.5	102 (≈ 39.8 µg/mL)	3.84	20.5	102 (≈ 39.8 µg/mL)	102 (≈ 39.8 µg/mL)	20.5 (≈ 7.99 µg/mL)	205 (≈ 79.9 µg/mL)	102 (≈ 39.8 µg/mL)	76.8	205 (≈ 79.9 µg/mL)	38.4	MFC99.5 (Penicillium ochrochloron [21]): 38.4 ×10⁻² umol/ml; MFC99.5 (Aspergillus versicolor [22]): 10.2 ×10⁻² umol/ml; MFC99.5 (Candida albicans [23]): 20.5 ×10⁻² umol/ml; MBC99.5 (Salmonella typhimurium [24]): 38.4 ×10⁻² umol/ml; MFC99.5 (Aspergillus niger [25]): 10.2 ×10⁻² umol/ml; MBC99.5 (Escherichia coli [26]): 20.5 ×10⁻² umol/ml; MIC (Enterobacter cloacae [27]): 205 µM (≈ 79.9 µg/mL); MIC (Penicillium ochrochloron [28]): 208 µM (≈ 81.1 µg/mL); MIC (Aspergillus versicolor [29]): 51 µM (≈ 19.9 µg/mL); MIC (Aspergillus fumigatus [30]): 384 µM (≈ 150 µg/mL); MFC99.5 (Aspergillus ochraceus [31]): 20.5 ×10⁻² umol/ml; MIC (Aspergillus niger [32]): 77 µM (≈ 30 µg/mL)
O=C(NN1C(=O)CSC1c1cccc(F)c1)c1nsc2ccccc12 (stereo unspecified)	80.4	10.7	21.4	54 (≈ 20.2 µg/mL)	107 (≈ 40 µg/mL)	214 (≈ 79.9 µg/mL)	107 (≈ 40 µg/mL)	40.2	21.4	107 (≈ 40 µg/mL)	40.2	21.4	292 (≈ 109 µg/mL)	107 (≈ 40 µg/mL)	214 (≈ 79.9 µg/mL)	214 (≈ 79.9 µg/mL)	160 (≈ 59.7 µg/mL)	10.7	214 (≈ 79.9 µg/mL)	40.2	MFC99.5 (Penicillium ochrochloron [21]): 21.4 ×10⁻² umol/ml; MFC99.5 (Aspergillus versicolor [22]): 10.7 ×10⁻² umol/ml; MFC99.5 (Candida albicans [23]): 21.4 ×10⁻² umol/ml; MBC99.5 (Salmonella typhimurium [24]): 40.2 ×10⁻² umol/ml; MFC99.5 (Aspergillus niger [25]): 21.4 ×10⁻² umol/ml; MBC99.5 (Escherichia coli [26]): 21.4 ×10⁻² umol/ml; MIC (Enterobacter cloacae [27]): 214 µM (≈ 79.9 µg/mL); MIC (Penicillium ochrochloron [28]): 107 µM (≈ 40 µg/mL); MIC (Aspergillus versicolor [29]): 54 µM (≈ 20.2 µg/mL); MIC (Aspergillus fumigatus [30]): 54 µM (≈ 20.2 µg/mL); MFC99.5 (Aspergillus ochraceus [31]): 40.2 ×10⁻² umol/ml; MIC (Aspergillus niger [32]): 107 µM (≈ 40 µg/mL)
